Eleven molecules from US8372864B2, “1-oxo-isoindoline-4-carboxamide and 1-oxo-1,2,3,4-tetrahydroisoquinoline-5-carboxamide derivatives, preparation and therapeutic use thereof” (Sanofi, priority 2007, dated 2013) can be followed below.

As usually defined, the melting point is the temperature of the solid-liquid transition.

SMILES strings stand for the structures. Structures can show the parent of a compound that is named as a salt.

In one data set the target is T1, purified recombinant form of human BACE1 aspartyl protease (Homo sapiens, UniProt P56817).
T1 construct: hexahistidine (C); made in house; host or cells: Drosophila cells
T1 sequence (P56817 46-501): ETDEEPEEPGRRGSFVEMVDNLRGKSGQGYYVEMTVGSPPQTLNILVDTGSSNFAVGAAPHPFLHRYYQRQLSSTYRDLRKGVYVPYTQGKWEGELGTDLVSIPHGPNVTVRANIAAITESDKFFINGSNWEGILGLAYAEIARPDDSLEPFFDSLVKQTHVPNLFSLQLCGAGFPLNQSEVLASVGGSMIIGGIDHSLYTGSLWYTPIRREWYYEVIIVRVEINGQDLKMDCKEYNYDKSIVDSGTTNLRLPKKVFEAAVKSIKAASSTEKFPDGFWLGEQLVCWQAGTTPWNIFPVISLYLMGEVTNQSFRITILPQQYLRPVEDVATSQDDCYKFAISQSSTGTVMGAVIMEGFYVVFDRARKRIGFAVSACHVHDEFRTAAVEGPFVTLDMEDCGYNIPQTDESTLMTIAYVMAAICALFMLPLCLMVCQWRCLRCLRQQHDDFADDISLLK
Description: in vitro inhibition of β-secretase (BACE1) activity, FRET cleavage of fluorogenic peptide substrate FS1. The conditions noted are these: purified enzyme 10 nM, substrate FS1 5 μM, sodium acetate buffer pH 4.5, 37° C., 45 minutes; read-out: IC50 (concentration of product giving 50% inhibition of the enzyme activity). The data set is classed as biochemical. As for the experimental part: The tests consisted in measuring the in vitro inhibition of the β-secretase activity by the compounds of the invention.
The β-secretase activity measured corresponds to that of a purified recombinant form of human BACE1 aspartyl protease (the latter comprising a hexahistidine tag at the C-terminal position) produced by expression in Drosophila cells. The purified enzyme is conditioned in TRIS buffer (18 mM) at pH 7.5 containing NaCl (0.45M), MnCl2 (0.9 mM), CaCl2 (0.9 mM), α-D-methylmannoside and 10% glycerol, and stored at −80° C. until use.
The BACE1 activity is measured from the cleavage of a fluorogenic peptide substrate, known as FS1, described originally by Ermolieff et Coll. (2000, Biochemistry, 39, 12450-12456), and based on the principle of fluorescence resonance energy transfer (FRET); the cleavage of the FS1 peptide is measured from the increase of the fluorescent signal emitted by the EDANS (or 5-[(2-aminoethyl)amino]naphthalene-[…]) group. The test is carried out in a 96-well microplate in order to determine the inhibition of the enzyme activity by the products of the invention. The substrate FS1 is solubilized to a concentration of 1 mM in 100% dimethylsulfoxide (DMSO) and stored at −20° C. until use. The dilutions of the products to be tested are prepared in DMSO starting from a 10 mM stock solution. The products of the invention, at final concentrations of 0.003 to 10 μM are incubated at 37° C. with the substrate FS1 (final concentration of 5 μM) and the purified enzyme (final concentration of 10 nM) in the sodium acetate buffer (0.1M), pH 4.5 containing 0.02% of CHAPS detergent and 200 mM NaCl for 45 minutes. […] When the incubation is finished, the fluorescence is measured in a spectrofluorimeter, at the excitation wavelength of 355 nm and emission wavelength of 509 nm. For each product concentration tested, the fluorescent signal is compared to the maximum signal obtained when the substrate FS1 is only incubated with the enzyme.
The inhibitory activity of the products of the invention is then evaluated by the measurement of the IC50 (concentration of product giving 50% inhibition of the enzyme activity) using a non-linear regression analysis (computer application software XLfit, IDBS™).
In the case of `CCCC(CCC)N1Cc2c(C(=O)N[C@@H](Cc3ccccc3)[C@H](O)CNCc3cccc(C(F)(F)F)c3)cccc2C1=O` [Compound 1, N-[(1S,2R)-1-benzyl-2-hydroxy-3-{[3-(trifluoromethyl)benzyl]amino}propyl]-1-oxo-2-(1-propylbutyl)isoindoline-4-carboxamide hydrochloride (1:1)], the IC50 was determined as 770 nM.

As to `CCCC(CCC)N1CCc2c(C(=O)N[C@@H](Cc3cc(F)cc(F)c3)[C@H](O)CNC3(c4cccc(C(F)(F)F)c4)CC3)cc(N(C)S(C)(=O)=O)cc2C1=O` [Compound 9, N-[(1S,2R)-1-(3,5-difluorobenzyl)-2-hydroxy-3-({1-[3-(trifluoromethyl)phenyl]cyclopropyl}amino)propyl]-7-[methyl(methylsulfonyl)amino]-1-oxo-2-(1-propylbutyl)-1,2,3,4-tetrahydroisoquinoline-5-carboxamide hydrochloride (1:1)], the IC50 is 48 nM.

`CCCC(CCC)N1CCc2c(C(=O)N[C@@H](Cc3cc(F)cc(F)c3)[C@H](O)CNC3(c4cccc(C(F)(F)F)c4)CC3)cc(-c3cccc(C#N)c3)cc2C1=O` [Compound 16, N-[(1S,2R)-1-(3,5-difluorobenzyl)-2-hydroxy-3-({1-[3-(trifluoromethyl)phenyl]cyclopropyl}amino)propyl]-7-(3-cyanophenyl)-1-oxo-2-(1-propylbutyl)-1,2,3,4-tetrahydroisoquinoline-5-carboxamide hydrochloride (1:1)]: the IC50 is 390 nM.

`CCCC(CCC)N1CCc2c(C(=O)N[C@@H](Cc3cc(F)cc(F)c3)[C@H](O)CNC3(c4cccc(C(F)(F)F)c4)CC3)cc(-c3ccccc3C#N)cc2C1=O` [Compound 17, N-[(1S,2R)-1-(3,5-difluorobenzyl)-2-hydroxy-3-({1-[3-(trifluoromethyl)phenyl]cyclopropyl}amino)propyl]-7-(2-cyanophenyl)-1-oxo-2-(1-propylbutyl)-1,2,3,4-tetrahydroisoquinoline-5-carboxamide hydrochloride (1:1)]: the IC50 stood at 630 nM.

System in a further data set: not given
Assay: not given
Details: not given
In turn, `CC(c1ccc(F)cc1)N1CCc2c(C(=O)N[C@@H](Cc3cc(F)cc(F)c3)[C@H](O)CNC3(c4cccc(C(F)(F)F)c4)CC3)cccc2C1=O.Cl` (some centres unmarked) yielded a melting point of 157 °C.

Regarding `CCCC(CCC)N1Cc2c(C(=O)N[C@@H](Cc3cc(F)cc(F)c3)[C@H](O)CNC3(c4cccc(C(F)(F)F)c4)CC3)cc(N(C)S(C)(=O)=O)cc2C1=O.Cl`, the melting point is 194 °C.

In turn, `CCCC(CCC)N1CCc2c(C(=O)N[C@@H](Cc3cc(F)cc(F)c3)[C@H](O)CNC3(c4cccc(C(F)(F)F)c4)CC3)cc(C(F)(F)F)cc2C1=O.Cl` came in with a melting point of 196 °C.

On to `CCCC(CCC)N1CCc2c(C(=O)N[C@@H](Cc3ccccc3)[C@H](O)CNC3(c4cccc(C(F)(F)F)c4)CC3)cccc2C1=O.Cl`, for which the melting point was found to be 174 °C.

Molecule `CCCC(CCC)N1CCc2c(C(=O)N[C@@H](Cc3cc(F)cc(F)c3)[C@H](O)CNC3(c4cccc(C(F)(F)F)c4)CC3)cccc2C1=O.Cl` had a melting point of 172 °C.

With `Cl.O=C(N[C@@H](Cc1cc(F)cc(F)c1)[C@H](O)CNC1(c2cccc(C(F)(F)F)c2)CC1)c1cccc2c1CCN(Cc1ccccc1)C2=O`, the melting point was determined as 178 °C.

`CCCCCN1CCc2c(C(=O)N[C@@H](Cc3cc(F)cc(F)c3)[C@H](O)CNC3(c4cccc(C(F)(F)F)c4)CC3)cccc2C1=O.Cl`: the melting point stood at 165 °C.
